Assay results reported in US20110136916A1, “6-SHOGAOL FOR USING IN A METHOD FOR THE TREATMENT OF LEUKEMIA” (China Pharmaceutical University, priority 2009, published 2011).
“Also recorded” adds a separate entry of the source. Read-outs that look alike come from different tables or passages of the source.

Columns and labels:
[1] = test system: colon carcinoma HCT15 cells; conditions: cited from earlier work
[2] = test system: human ovarian cancer SK-OV-3 cells; conditions: cited from earlier work
[3] = cited from earlier work
[4] = test system: human acute myelocytic leukemia cell U937; experiment: MTT anti-proliferation, U937; type: cell-based; conditions: for IC50: U937, MTT, n = 3; for growth inhibition (activities of cells vs control): U937, 1-20 μM
Experimental: (§1) Cells in logarithmic growth phase were collected and then inoculated in 1˜2×10^4 cells/well in a 96-well plate respectively according to the sizes of cells and whether they attached to the wall, the cells were centrifuged and the supernatant was removed after growing for 24 hours, and then drug administration was carried out according to the groups as below: the drug group and the drug free group were set up for tumor cells (the concentrations ranged from 1˜20 μM), 5 or 6 duplicates were set for each group and the cells were incubated for 24 or 72 hours. The supernatant was removed and 100 μl serum free culture solution containing 0.5 mg/ml MTT (tetrazolium) was added for further incubation for 4 hours, subsequently 100 μl DMSO (dimethyl sulfoxide) was added and the plate was kept on the micro-shaker for 10 minutes, and the OD value was determined on a micro-plate reader at the wavelength of 570 nm. Evaluations on the toxicity were carried out on normal human cell line LO-2 and each test was repeated for three times.

[5] = test system: normal human cell line LO-2; experiment: MTT toxicity evaluation on normal cell line LO-2; type: cell-based; conditions: for growth inhibition of normal hepatic cell line LO-2: LO-2, 1-20 μM
Experimental: as §1

[6] = test system: peripheral blood lymphocytes (PBMC) of clinical leukemia patients; experiment: Annexin V/PI apoptosis of PBMC from leukemia patients; type: cell-based, human; conditions: 24 hours
Experimental: After application by the research group and approval by the Ethics Committee of the hospital, the leukemia patients (healthy volunteers) signed the informed consent and their fresh blood was collected and transferred into heparin anticoagulation tubes, then the same volume of serum free D-Hank buffer (preheated at 37° C.) was added to re-suspend the cells, and the suspension was added to the pre-laid human lymphocyte separating medium (preheated at 37° C.), and the volume ratio between the lymphocyte separating medium and the cell suspension should be no lower than 1:1, and the mixture was centrifuged at room temperature (20-30° C.) at 500×g by a horizontal centrifuge for 30 minutes. The upper layer plasma was removed and the white fog layer in the middle was carefully collected and transferred to 5 mL (or 1-2 times of the volume) PBS (or serum free buffer for cell culture), then it was centrifuged at 200×g or 1000 rpm for 10 minutes at room temperature (20-30° C.), and the supernatant was removed, and the obtained precipitation was the peripheral blood lymphocytes (PBMC). The cells were rinsed twice according to the above-mentioned operations at 500×g by the horizontal centrifuge for 10 minutes at room temperature (20-30° C.), subsequently the cells were collected and their cell vitality was detected by using dye exclusion method for living cells (Trypan blue).
The cells were added to a 24-well plate in 3×10^5 cells/mL/well and different concentrations of 6-shogaol (10 and 20 μM) for treatment for 24 hours after they were incubated for 24 hours. Negative control group (the group without drug) and the treatment group with 6-shogaol were set up for PBMCs from different individuals respectively. After the cells were treated with 6-shogaol for 24 hours, they were transferred into 10 mL glass centrifuge tubes and centrifuged at 500 rpm (or 100×g) for 5 minutes to remove the supernatant. The cells were then rinsed with 0.01 M PBS at 500 rpm (or 100×g) for 5 minutes twice. Subsequently, after adding binding solution and staining according to the directions for use of Annexin V/PI double staining kit (BD Company), flow cytometry analysis (Becton Dickinson FACScan Flow Cytometer) was carried out. The FACS data were analyzed by professional operators of the flow cytometer by using FLOWJO software (Tree Star, Calif.) software, the apoptotic rate was counted by the sum of early apoptosis and late apoptosis, and the results were shown in Table 4 and Table 5.

Question: What does the source list for `CCCCC/C=C/C(=O)CCc1ccc(O)c(OC)c1` [6-shogaol]?
Answer: anti-tumor activities [1]: certain anti-tumor activities; anti-tumor activities [2]: certain anti-tumor activities; solubility in ethanol ([3]; ethanol): soluble; solubility in water ([3]; water): insoluble; IC50 ([4]; Homo sapiens, U-937, 24 h, 24 hours, read-out: Mean IC50 after 24 hours): < 10 µM; IC50 ([4]; Homo sapiens, U-937, 72 h, 72 hours, read-out: Mean IC50 after 72 hours): < 5 µM; growth inhibition (activities of cells vs control) ([4]; 24 hours, FIG. 4): significantly decreased; growth inhibition (activities of cells vs control) ([4]; 72 hours, FIG. 8): significantly decreased; IC50 ([4]; 24 hours, read-out: Mean IC50 after 24 hours): 7.63 ± 0.47 µM; IC50 ([4]; 72 hours, read-out: Mean IC50 after 72 hours): 4.93 ± 0.7 µM; growth inhibition of normal hepatic cell line LO-2 ([5]; 24 hours): didn't inhibit the proliferation; growth inhibition of normal hepatic cell line LO-2 ([5]; 72 hours): didn't inhibit the proliferation; toxicity on normal hepatic cells LO-2 ([5]; summary statement): No toxic reaction was found; also recorded: low toxicity; induction of apoptosis of PBMC of leukemia patients (t-test) ([6]; 30 cases of leukemia patients, 10 and 20 μM): significantly induce the apoptosis; Apoptotic rate of 10 μM 6-shogaol ([6]; PBMC of patient P1, 10 μM): 38.5 ± 3.7a %; Apoptotic rate of 20 μM 6-shogaol ([6]; PBMC of patient P1, 20 μM): 56.9 ± 2.2a %; Apoptotic rate of 10 μM 6-shogaol ([6]; PBMC of patient P2, 10 μM): 27.6 ± 1.3a %; Apoptotic rate of 20 μM 6-shogaol ([6]; PBMC of patient P2, 20 μM): 50.1 ± 5.4a %; Apoptotic rate of 10 μM 6-shogaol ([6]; PBMC of patient P3, 10 μM): 47.9 ± 1.6a %; Apoptotic rate of 20 μM 6-shogaol ([6]; PBMC of patient P3, 20 μM): 72.9 ± 3.1a %; Apoptotic rate of 10 μM 6-shogaol ([6]; PBMC of patient P4, 10 μM): 35.7 ± 3.8a %; Apoptotic rate of 20 μM 6-shogaol ([6]; PBMC of patient P4, 20 μM): 69.7 ± 1.6a %; Apoptotic rate of 10 μM 6-shogaol ([6]; PBMC of patient P5, 10 μM): 40.5 ± 6.1a %; Apoptotic rate of 20 μM 6-shogaol ([6]; PBMC of patient P5, 20 μM): 61.9 ± 4.2a %; Apoptotic rate of 10 μM 6-shogaol ([6]; PBMC of patient P6, 10 μM): 29.3 ± 1.7a %; Apoptotic rate of 20 μM 6-shogaol ([6]; PBMC of patient P6, 20 μM): 52.7 ± 2.3a %; Apoptotic rate of 10 μM 6-shogaol ([6]; PBMC of patient P7, 10 μM): 44.6 ± 3.8a %; Apoptotic rate of 20 μM 6-shogaol ([6]; PBMC of patient P7, 20 μM): 75.9 ± 1.7a %; Apoptotic rate of 10 μM 6-shogaol ([6]; PBMC of patient P8, 10 μM): 31.3 ± 2.7a %; Apoptotic rate of 20 μM 6-shogaol ([6]; PBMC of patient P8, 20 μM): 64.7 ± 2.4a %; Apoptotic rate of 10 μM 6-shogaol ([6]; PBMC of patient P9, 10 μM): 27.5 ± 2.9a %; Apoptotic rate of 20 μM 6-shogaol ([6]; PBMC of patient P9, 20 μM): 44.8 ± 3.9a %; Apoptotic rate of 10 μM 6-shogaol ([6]; PBMC of patient P10, 10 μM): 42.4 ± 3.1a %; Apoptotic rate of 20 μM 6-shogaol ([6]; PBMC of patient P10, 20 μM): 73.5 ± 3.7a %; Apoptotic rate of 10 μM 6-shogaol ([6]; PBMC of patient P11, 10 μM): 29.7 ± 2.4a %; Apoptotic rate of 20 μM 6-shogaol ([6]; PBMC of patient P11, 20 μM): 50.1 ± 3.3ac %; Apoptotic rate of 10 μM 6-shogaol ([6]; PBMC of patient P12, 10 μM): 49.3 ± 4.1a %; Apoptotic rate of 20 μM 6-shogaol ([6]; PBMC of patient P12, 20 μM): 80.8 ± 5.1ac %; Apoptotic rate of 10 μM 6-shogaol ([6]; PBMC of patient P13, 10 μM): 55.9 ± 2.7a %; Apoptotic rate of 20 μM 6-shogaol ([6]; PBMC of patient P13, 20 μM): 82.9 ± 2.5ac %; Apoptotic rate of 10 μM 6-shogaol ([6]; PBMC of patient P14, 10 μM): 26.7 ± 1.9a %; Apoptotic rate of 20 μM 6-shogaol ([6]; PBMC of patient P14, 20 μM): 39.7 ± 2.6ac %; Apoptotic rate of 10 μM 6-shogaol ([6]; PBMC of patient P15, 10 μM): 34.5 ± 3.1a %; Apoptotic rate of 20 μM 6-shogaol ([6]; PBMC of patient P15, 20 μM): 47.9 ± 4.2ab %; Apoptotic rate of 10 μM 6-shogaol ([6]; PBMC of patient P16, 10 μM): 39.3 ± 2.3a %; Apoptotic rate of 20 μM 6-shogaol ([6]; PBMC of patient P16, 20 μM): 46.7 ± 1.6ab %; Apoptotic rate of 10 μM 6-shogaol ([6]; PBMC of patient P17, 10 μM): 44.6 ± 3.8a %; Apoptotic rate of 20 μM 6-shogaol ([6]; PBMC of patient P17, 20 μM): 55.9 ± 1.7ab %; Apoptotic rate of 10 μM 6-shogaol ([6]; PBMC of patient P18, 10 μM): 33.1 ± 3.7a %; Apoptotic rate of 20 μM 6-shogaol ([6]; PBMC of patient P18, 20 μM): 54.7 ± 2.6ac %; Apoptotic rate of 10 μM 6-shogaol ([6]; PBMC of patient P19, 10 μM): 37.9 ± 4.9a %; Apoptotic rate of 20 μM 6-shogaol ([6]; PBMC of patient P19, 20 μM): 51.8 ± 7.9ac %; Apoptotic rate of 10 μM 6-shogaol ([6]; PBMC of patient P20, 10 μM): 52.9 ± 2.7a %; Apoptotic rate of 20 μM 6-shogaol ([6]; PBMC of patient P20, 20 μM): 63.6 ± 1.2ab %; Apoptotic rate of 10 μM 6-shogaol ([6]; PBMC of patient P21, 10 μM): 31.5 ± 4.3a %; Apoptotic rate of 20 μM 6-shogaol ([6]; PBMC of patient P21, 20 μM): 44.5 ± 2.4ab %; Apoptotic rate of 10 μM 6-shogaol ([6]; PBMC of patient P22, 10 μM): 20.5 ± 3.1a %; Apoptotic rate of 20 μM 6-shogaol ([6]; PBMC of patient P22, 20 μM): 38.5 ± 2.1ac %; Apoptotic rate of 10 μM 6-shogaol ([6]; PBMC of patient P23, 10 μM): 36.2 ± 5.7a %; Apoptotic rate of 20 μM 6-shogaol ([6]; PBMC of patient P23, 20 μM): 67.1 ± 3.7ac %; Apoptotic rate of 10 μM 6-shogaol ([6]; PBMC of patient P24, 10 μM): 42.7 ± 2.4a %; Apoptotic rate of 20 μM 6-shogaol ([6]; PBMC of patient P24, 20 μM): 58.7 ± 3.9ac %; Apoptotic rate of 10 μM 6-shogaol ([6]; PBMC of patient P25, 10 μM): 47.8 ± 2.9a %; Apoptotic rate of 20 μM 6-shogaol ([6]; PBMC of patient P25, 20 μM): 69.1 ± 3.3ac %; Apoptotic rate of 10 μM 6-shogaol ([6]; PBMC of patient P26, 10 μM): 43.3 ± 4.9a %; Apoptotic rate of 20 μM 6-shogaol ([6]; PBMC of patient P26, 20 μM): 56.9 ± 5.2ac %; Apoptotic rate of 10 μM 6-shogaol ([6]; PBMC of patient P27, 10 μM): 30.9 ± 1.7a %; Apoptotic rate of 20 μM 6-shogaol ([6]; PBMC of patient P27, 20 μM): 47.6 ± 3.6ab %; Apoptotic rate of 10 μM 6-shogaol ([6]; PBMC of patient P28, 10 μM): 39.6 ± 2.2a %; Apoptotic rate of 20 μM 6-shogaol ([6]; PBMC of patient P28, 20 μM): 56.3 ± 3.8ac %; Apoptotic rate of 10 μM 6-shogaol ([6]; PBMC of patient P29, 10 μM): 33.7 ± 3.5a %; Apoptotic rate of 20 μM 6-shogaol ([6]; PBMC of patient P29, 20 μM): 42.4 ± 2.9ab %; Apoptotic rate of 10 μM 6-shogaol ([6]; PBMC of patient P30, 10 μM): 28.6 ± 2.9a %; Apoptotic rate of 20 μM 6-shogaol ([6]; PBMC of patient P30, 20 μM): 51.9 ± 4.2ac %
